Activity calls are given as the source filed them. The calls are words filed in the database; no cut-off is given here.

Acetylcholinesterase, sequence (P22303 whole entry): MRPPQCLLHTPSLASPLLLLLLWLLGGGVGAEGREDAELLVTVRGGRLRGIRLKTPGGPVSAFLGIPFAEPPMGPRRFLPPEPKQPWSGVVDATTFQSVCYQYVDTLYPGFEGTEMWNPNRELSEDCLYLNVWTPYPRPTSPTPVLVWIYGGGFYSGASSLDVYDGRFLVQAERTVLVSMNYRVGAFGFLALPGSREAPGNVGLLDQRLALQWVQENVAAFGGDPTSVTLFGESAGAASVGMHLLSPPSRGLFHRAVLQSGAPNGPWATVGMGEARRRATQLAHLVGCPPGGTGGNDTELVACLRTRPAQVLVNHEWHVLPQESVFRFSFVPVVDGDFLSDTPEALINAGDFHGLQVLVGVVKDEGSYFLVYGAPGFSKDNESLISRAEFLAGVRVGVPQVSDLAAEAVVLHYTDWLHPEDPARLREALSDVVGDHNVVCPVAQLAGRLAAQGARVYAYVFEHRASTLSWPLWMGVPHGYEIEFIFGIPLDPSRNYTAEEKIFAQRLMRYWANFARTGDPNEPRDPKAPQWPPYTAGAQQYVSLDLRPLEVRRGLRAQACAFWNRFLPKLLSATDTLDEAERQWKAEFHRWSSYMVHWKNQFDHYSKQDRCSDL

The assay has as its target Acetylcholinesterase (Homo sapiens, UniProt P22303). Briefly: Inhibition of AChE (unknown origin) using acetylthiocholine iodide as substrate after 5 mins by spectrophotometric analysis.
For orientation: IC50 means the point on the concentration scale where inhibition reaches its midpoint. A low value points to higher potency. With `COc1cc(O)c2c(c1)C1=C(c3c(O)c(O)cc(C)c3-c3cc(OC)cc(O)c3C(=O)O)C(=O)C(O)=CC1(C)OC2=O` (stereo not given), the half-maximal inhibitory concentration (IC50) worked out at 15.5 µM and the inhibition entry was “inactive”.

With `COc1cc(O)c2c(c1)C1=CC3=Nc4cc(C)c(-c5cc(OC)cc(O)c5C(=O)O)cc4O[C@]3(O)C[C@]1(C)OC2=O`, the inhibition result was “inactive”.

As for `COc1cc(O)c(C(=O)O)c(-c2c(C)cc(O)c3oc4c(c23)C2(OC(=O)c3c(O)cc(OC)cc32)C(C)=CC4=O)c1` (stereo in doubt; (+)-2), the inhibition result was “inactive”.

As to `COc1cc(O)c2c(c1)C1=CC3=Nc4cc(C)c(-c5cc(OC)cc(O)c5C(=O)O)cc4O[C@@]3(O)C[C@@]1(C)OC2=O`, the inhibition result was “inactive”.

Consider `COc1cc(O)c(C(C)=O)c(-c2c(C)cc(O)c3oc4c(O)cc(C)c(-c5cc(OC)cc(O)c5C(=O)O)c4c23)c1`, for which the 50% inhibitory concentration (IC50) amounted to 68.3 µM.

Consider `COc1cc(O)c(C(=O)O)c(-c2c(C)cc(O)c(O)c2-c2c(O)c(O)cc(C)c2-c2cc(OC)cc(O)c2C(=O)O)c1`, for which the inhibition entry was “inactive”.

As to `COc1cc(O)c(C(=O)O)c(-c2c(C)cc(O)c3oc4c(c23)C2(OC(=O)c3c(O)cc(OC)cc32)C(C)=CC4=O)c1` (stereo in doubt; (-)-2), the inhibition result was “inactive”.

In the case of `COc1cc(O)c2c(c1)C1=C(C3=C4c5cc(OC)cc(O)c5C(=O)OC4(C)C=C(O)C3=O)C(=O)C(O)=CC1(C)OC2=O` (stereo in doubt; (-)-6), the inhibition entry was “inactive”.

In the case of `COc1cc(O)c2c(c1)C1=C(C3=C4c5cc(OC)cc(O)c5C(=O)OC4(C)C=C(O)C3=O)C(=O)C(O)=CC1(C)OC2=O` (stereo in doubt; (+)-6), the inhibition entry was “inactive”.

Source of the values: ChEMBL document CHEMBL4480424, “Bialternacins A-F, Aromatic Polyketide Dimers from an Endophytic Alternaria sp” (J Nat Prod, 2019).
